This note sets out measurements from US20220370416A1, “COMPOUNDS AND METHODS FOR TARGETED DEGRADATION OF KRAS” (Arvinas Operations, Inc., priority 2020, published 2022).

Common to all, as to type: cell-based
Assay [1] deals with T1, KRAS^G12C (Homo sapiens, UniProt P01116, G12C). The assay is described as follows: KRAS^G12C engagement and degradation by immunoblot in NCI-H2030 cells. The following applies: for rescue of LC-2 induced KRAS^G12C degradation by inhibitor: NCI-H2030, 1 μM inhibitor before 2.5 μM LC-2. On the set-up: MRTX849-VHL bifunctional compounds engage and degrade endogenous KRAS^G12C in NCI-H2030 cells; endogenous in cells; host or cells: NCI-H2030, NCI-H358, MIA PaCa-2, SW1573, NCI-H23. As for the experimental part: (§1) NCI-H2030 (CRL-5914), MIA PaCa-2 (CRL-1420), NCI-H23 (CRL-5800), NCI-H358 (CRL-5807), and HCT-116 (CCL-247) cells were obtained from ATCC, expanded immediately, and frozen down. Vials were thawed and used within 20 passages. SW1573 cells were a gift from Arvinas and were handled in the same manner. NCI-H2030, NCI-H23, and NCI-H358 were cultured in RPMI (ATCC30-2001) supplemented with 10% FBS (Biological Industries; cat. no. S1480) and 1% Penicillin-Streptomycin (ThermoFisher; cat. no. 15140122). HCT-116 cells were maintained in high glucose DMEM (ThermoFisher; cat. no. 11965084) supplemented as above. MIA PaCa-2 cells were cultured in high glucose DMEM supplemented with 10% FBS, 2.5% horse serum (ThermoFisher; cat. no. 26050-088; lot 2109875), and 1% Penicillin-Streptomycin. SW1573 cells were maintained in DMEM/F12 Nutrient Mix with GlutaMAX supplement (ThermoFisher; cat. no. 10565018) with 10% FBS and 1% Penicillin-Streptomycin added. DPBS (ThermoFisher; cat. no. 14190250) was used to wash cells and 0.25% Trypsin-EDTA (ThermoFisher; cat. no. […]) was used to detach cells for passaging. […] The VHL ligand was generously provided by Arvinas.
(§2) Between 2.5×10^5 and 6.0×10^5 cells were seeded into 6-well plates (Corning; cat. no. 353046). The next day, media was removed and cells were treated with 2.5 μM LC-2 for 1, 2, 4, 8, 12, or 24 hours. […] For 24-hour time course experiments, cells were treated at the indicated times and concurrently lysed in RIPA buffer supplemented as described previously. For longer time course experiments and time courses in which cells were treated with LC-2 or LC-2 Epimer, cells were concurrently treated with either compound, then lysed by scraping in RIPA buffer at the indicated time points.
(§3) Between 2.5×10^5 and 5.0×10^5 cells were seeded into 6-well plates. The next day cells were pretreated with DMSO, 500 μM or 1 mM VHL ligand, 1 μM epoxomicin, 1 μM […], or 100 nM […] bafilomycin A1 for 1 hour. Media was then removed and cells were treated with DMSO, 2.5 μM LC-2 plus DMSO, 2.5 μM LC-2 Epimer plus DMSO, or co-treated with 2.5 μM LC-2 and the corresponding competitor/inhibitor. H2030 cells were treated for 4 hours and H23 cells were treated for 24 hours, after which cells were lysed by scraping in RIPA buffer supplemented as described previously.
(§4) Cell lysates were clarified at 21000×g for 15 mins at 4° C. Protein levels were quantified using a 50:1 mixture of bicinchoninic acid solution (Millipore Sigma; cat. no. B9643) and 4% (w/v) copper(II) sulfate solution (Millipore Sigma; cat. no. C2284) incubated at 37° C. for 30 mins. Absorbance values at 560 nm were read on an EnVision 2101 Multilabel Reader (PerkinElmer). Proteins were separated using 26 well Criterion TGX precast 4-15% (cat. no. 5671085) or 8-16% (cat. no. 5671105) gradient midi gels. After separation, proteins were transferred to nitrocellulose or PVDF membranes at 76 V for 2 hours at 4° C. Blots were then blocked in 5% milk in tris-buffered saline with Tween-20 (TBST; 20 mM Tris, 150 mM NaCl, 0.02% Tween-20). After blocking, blots were incubated in primary antibody overnight (12-18 hours) at 4° C. or for 2 hours at room temperature with mild agitation at the manufacturer's indicated dilution in either 5% milk or 5% BSA in TBST. Blots were then washed thrice with TBST for 5 mins at room temperature. After washing, blots were incubated with 1:5,000-1:10,000 of donkey anti-rabbit (GE Life Sciences; NA934) or sheep anti-mouse (GE Life Sciences; NA931) secondary antibody diluted in 5% milk for 1 hour at room temperature with mild agitation. Blots were again washed thrice with TBST for 5 mins. Chemiluminescent signal was generated using Amersham ECL Prime Western Blotting Detection Reagant (GE Life Sciences; cat. no. RPN2232) or SuperSignal West Femto Maximum Sensitivity Substrate (ThermoFisher; cat. no. 34095). Images were obtained using a Bio-Rad ChemiDoc Imager.
On the technique in general: A western blot detects proteins with antibodies after separation by electrophoresis.

Assay [2] has as its target T1, KRAS^G12C. The assay is described as follows: Engagement and degradation of endogenous KRAS^G12C in NCI-H2030 cells (blot quantitation). Further details: MRTX849-VHL bifunctional compounds engage and degrade endogenous KRAS^G12C in NCI-H2030 cells; endogenous in cells; host or cells: NCI-H2030. The following applies: dose response (FIG. 2B).
In assay [3] the target is T1, KRAS^G12C. The assay is described as follows: KRAS^G12C degradation by immunoblot in NCI-H23 cells. Further details: MRTX849-VHL bifunctional compounds engage and degrade endogenous KRAS^G12C in NCI-H2030 cells; endogenous in cells; host or cells: NCI-H2030, NCI-H358, MIA PaCa-2, SW1573, NCI-H23. The following applies: for KRAS, two-way ANOVA significance vs DMSO: FIG. 9B. As for the experimental part: as §1, §2, §3, §4

In assay [4] the target is T2, HiBit-KRAS^G12C (Homo sapiens, UniProt P01116, G12C). Put plainly: HiBit degradation assay in MiaPaCa-2 HiBit-KRas^G12C cells. The conditions noted are these: 0.5% DMSO, 24 hours. Put shortly:
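MiaPaCa-2 cells with CRISPR N-terminal HiBit knock-in on one endogenous KRAS^G12C allele, treated 24 hours at 37° C with compound titrated 10 μM to 20 nM (0.1% or 0.5% DMSO). Lytic HiBit luminescence normalized to DMSO, 4-parameter fit giving DC50 and Dmax; points cytotoxic to […] cells by alamar blue excluded.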
On the technique in general: HiBiT is a short tag that completes a luciferase, so light tracks the accessible tagged protein.

In assay [5] the target is T2, HiBit-KRAS^G12C. Put plainly: HiBit degradation assay in SW1573 HiBit-KRas^G12C cells. The following applies: 0.5% DMSO, 24 hours. Further details: expressed in transfected cells; host or cells: SW1573 (clone E6), modified pcDNA3.1 vector, TK promoter. The procedure, abridged:
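SW1573 cells stably expressing N-terminally HiBit-tagged KRAS G12C, under the TK promoter, were treated 24 h at 37 °C with 10 μM to 20 nM compound in 0.1% or 0.5% DMSO. Residual HiBit luminescence normalised to DMSO and fitted with a 4-parameter model for DC50 and Dmax. Points with ≥50% viability loss (alamar blue) excluded.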

Take `NS(=O)(=O)OC[C@@H]1C[C@@H](n2ccc3c(N[C@H]4CCc5ccccc54)ncnc32)C[C@@H]1O` [MLN924, reference compound]: the “rescue of LC-2 induced KRAS^G12C degradation by inhibitor” value (from here on “rescue … by inhibitor”) on KRAS^G12C [1] was “rescued KRAS^G12C levels”.
As for `C=C(F)C(=O)N1CCN(c2nc(OC[C@@H]3CCCN3CCC(=O)NCCOCCOCCC(=O)N[C@H](C(=O)N3C[C@H](O)C[C@H]3C(=O)NCc3ccc(-c4scnc4C)cc3)C(C)(C)C)nc3c2CCN(c2cccc4cccc(Cl)c24)C3)C[C@@H]1CC#N` [LC-1, (2S,4R)-1-((S)-2-(tert-butyl)-16-((S)-2-(((7-(8-chloronaphthalen-1-yl)-4-((S)-3-(cyanomethyl)-4-(2-fluoroacryloyl)piperazin-1-yl)-5,6,7,8-tetrahydropyrido[3,4-d]pyrimidin-2-yl)oxy)methyl)pyrrolidin-1-yl)-4,14-dioxo-7,10-dioxa-3,13-diazahexadecanoyl)-4-hydroxy-N-(4-(4-methylthiazol-5-yl)benzyl)pyrrolidine-2-carboxamide], the “engagement of KRAS^G12C” value at KRAS^G12C [2] was “engages KRAS^G12C in a dose dependent manner”. The “effect on KRAS protein levels” value on KRAS^G12C [1] (10 μM, compound screen (FIG. 2C)) is recorded as “increased KRAS protein levels”. Moreover, the “KRAS, two-way ANOVA significance vs DMSO” value is reported as “* (* p < 0.05)” on KRAS^G12C [1] (NCI-H2030, 10 μM, FIG. 9A); “N.S” on KRAS^G12C [3] (NCI-H23, 0.1 μM); “N.S” at KRAS^G12C [3] (NCI-H23, 10 μM). For the same compound, on KRAS^G12C [1] (NCI-H2030, 24 hours, at 1, 2.5, 10, and 25 μM), the “KRAS engagement (band shift)” value is given as “clear band shift”. On KRAS^G12C [1] (NCI-H2030, 24 hours, increasing concentrations), the “reduction in KRAS levels” value is “small, non-significant reduction”.
Consider `CO/C1=C\C(C)=C\[C@@H](C)[C@@H](O)[C@@H](C)C/C(C)=C/C=C/[C@H](OC)[C@@H]([C@@H](C)[C@@H](O)[C@H](C)[C@@]2(O)C[C@@H](O)[C@H](C)[C@@H](C(C)C)O2)OC1=O` [BafA1, bafilomycin A1, reference compound], for which the “rescue … by inhibitor” value at KRAS^G12C [3] (NCI-H23, pre-treatment before LC-2) was “unable to rescue”.
In the case of `CC[C@H](C)[C@H](NC(=O)[C@H]([C@@H](C)CC)N(C)C(C)=O)C(=O)N[C@H](C(=O)N[C@@H](CC(C)C)C(=O)[C@@]1(C)CO1)[C@@H](C)O` [epoxomicin, reference compound], the “rescue … by inhibitor” value at KRAS^G12C [1] is recorded as “rescued KRAS^G12C levels”.
For `C=C(F)C(=O)N1CCN(c2nc(OCCN3CCC(F)(COc4cc([C@H](C(=O)N5C[C@H](O)C[C@H]5C(=O)N[C@@H](C)c5ccc(-c6scnc6C)cc5)C(C)C)on4)CC3)nc3c(F)c(-c4cc(O)cc5ccccc45)c(Cl)cc23)C[C@@H]1CC#N` (atropisomer, axis not shown) [Compound 121, (2S,4R)-1-[(2R)-2-[3-({1-[2-({6-chloro-4-[(3S)-3-(cyanomethyl)-4-(2-fluoroprop-2-enoyl)piperazin-1-yl]-8-fluoro-7-(3-hydroxynaphthalen-1-yl)quinazolin-2-yl}oxy)ethyl]-4-fluoropiperidin-4-yl}methoxy)-1,2-oxazol-5-yl]-3-methylbutanoyl]-4-hydroxy-N-[(1S)-1-[4-(4-methyl-1,3-thiazol-5-yl)phenyl]ethyl]pyrrolidine-2-carboxamide], the Dmax at HiBit-KRAS^G12C [4] (MIA PaCa-2, MiaPaCa-2 HiBit-KRas^G12C cells, maximum degradation, read-out: KRas^G12C-HiBiT (MiaPaCa; 0.5% DMSO) DMax) was greater than 70%; on HiBit-KRAS^G12C [5] (SW1573, SW1573 HiBit-KRas^G12C, read-out: KRas^G12C-HiBiT (SW1573; 0.5% DMSO) Dmax**) it was 35 to 70%. Moreover, the DC50 is 100 to 1000 nM on HiBit-KRAS^G12C [4] (read-out: KRas^G12C-HiBiT (MiaPaCa; 0.5% DMSO) IC50, MiaPaCa-2 HiBit-KRas^G12C cells) and less than 100 nM at HiBit-KRAS^G12C [5] (read-out: KRas^G12C-HiBiT (SW1573; 0.5% DMSO) IC50***, SW1573 HiBit-KRas^G12C).
